One may read the melting point as the temperature of the solid-liquid transition.

The values that follow come from patent publication US20040266774A1, “Amide compounds” (FUJISAWA PHARMACEUTICAL CO., LTD., priority 1999, published 2004).

The target in data set [1] is T1, 5-HT2c binding site (Rattus norvegicus, UniProt P08909).
T1 construct: ability to displace [^3H]-mesulergine in the rat prefrontal cortex; from tissue; host or cells: rat prefrontal cortex membrane suspension
T1 sequence (P08909 33-460): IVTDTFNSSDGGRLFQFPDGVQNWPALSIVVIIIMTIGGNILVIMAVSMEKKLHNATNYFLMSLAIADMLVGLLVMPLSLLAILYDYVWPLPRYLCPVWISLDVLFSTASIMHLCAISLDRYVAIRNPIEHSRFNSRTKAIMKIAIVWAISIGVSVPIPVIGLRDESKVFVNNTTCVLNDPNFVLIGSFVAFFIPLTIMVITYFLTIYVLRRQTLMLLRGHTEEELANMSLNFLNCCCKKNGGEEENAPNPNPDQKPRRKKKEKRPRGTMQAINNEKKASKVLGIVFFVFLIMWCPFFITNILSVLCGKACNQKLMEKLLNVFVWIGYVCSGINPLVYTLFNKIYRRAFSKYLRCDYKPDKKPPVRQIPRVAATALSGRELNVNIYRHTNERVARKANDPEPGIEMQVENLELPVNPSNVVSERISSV
Nature of the data set: [3H]-mesulergine binding. As to conditions: displacement of [3H]-mesulergine (1 nM) in rat prefrontal cortex membranes; test drugs 10^-6 M; 30 nM spiperone present; 37° C., 30 minutes. The protocol: [^3H]-mesulergine Binding
The affinity of the test drugs for the 5-HT2c binding site can be determined by assessing their ability to displace [^3H]-mesulergine in the rat prefrontal cortex. The method employed was similar to that of Pazos et al, 1984.
The membrane suspension ([…]) was incubated with [^3H]-mesulergine (1 nM) in Tris HCl buffer containing CaCl2 4 mM and ascorbic acid 0.1% (pH 7.4) at 37° C. for 30 minutes. Non-specific binding was measured in the presence of mianserin (1 μM). 30 nM spiperone was used to prevent binding to 5-HT2A sites. Test drugs (10^−6 M) were added in a volume of 100 μl. The total assay volume was 1000 μl. Incubation was stopped by rapid filtration using a Brandel cell harvester and radioactivity measured by scintillation counting.
The IC50 values were determined using a four parameter logistic program (DeLean 1978) and the pKi (the negative logarithm of the inhibition constant) calculated from the Cheng Prusoff equation where: [formula]
C=concentration of [^3H]-mesulergine
Kd=affinity of mesulergine for 5-HT2c binding site.
For orientation: Loss of bound radioactivity is the signal in a displacement assay; it reports binding, not function.

In the case of `O=C(Nc1cccc(-c2cccnc2)c1)c1cccc2c1Cc1ccccc1-2` [(2), N-(3-(pyridin-3-yl)phenyl)-9H-fluorene-1-carboxamide], in data set [1], the “Inhibition (%)” value is given as 74%.

Consider `O=C(Nc1cccc(-c2ccnnc2)c1)c1cccc2c1Cc1ccccc1-2` [(4), N-(3-(pyridazin-4-yl)phenyl)-9H-fluorene-1-carboxamide], for which, in data set [1], the “Inhibition (%)” value stood at 64%.

Turning to `O=C(Nc1cccc(-c2cncnc2)c1)c1cccc2c1Cc1ccccc1-2` [(3), N-(3-(pyrimidin-5-yl)phenyl)-9H-fluorene-1-carboxamide], in data set [1], the “Inhibition (%)” value is reported as 92%.

In the case of `O=C(Nc1cccc(-n2ccnc2)c1)c1csc(-c2ccccc2)n1` [Example 25, N-(3-(imidazol-1-yl)phenyl)-2-phenylthiazole-4-carboxamide], the melting point is 131 to 134 °C.

As for `Cn1ccc2cc(NC(=O)Nc3cccnc3)ccc21` [(1), N-(1-Methyl-1H-indol-5-yl)-N′-(3-pyridyl)urea, reference compound], the “Inhibition (%)” value in data set [1] came out at 21%.
